From ChEMBL document CHEMBL1201862, “PubChem BioAssay data set” (2004) come the findings set out here.

Test [1] deals with T1, RNA-binding protein pos-1 (Caenorhabditis elegans, UniProt G5EF15).
T1 sequence (G5EF15 whole entry): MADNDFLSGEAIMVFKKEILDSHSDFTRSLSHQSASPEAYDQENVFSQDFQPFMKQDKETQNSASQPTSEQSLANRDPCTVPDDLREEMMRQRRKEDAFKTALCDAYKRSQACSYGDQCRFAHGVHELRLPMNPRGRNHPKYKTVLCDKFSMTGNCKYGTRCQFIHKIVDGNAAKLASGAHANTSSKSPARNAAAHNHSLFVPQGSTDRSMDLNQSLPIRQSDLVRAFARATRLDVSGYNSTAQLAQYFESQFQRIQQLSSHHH
The test is described as follows: disruptors of C. elegans POS-1 RNA interaction – biochemical, fluorescence polarization, dose response (AID 1964).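 Also: purified POS-1 fused to maltose binding protein made in E. coli; potency of compounds blocking POS-1 binding to fluorescent RNA.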 A general note: Polarisation of emitted light reports the rotation of a fluorescent probe.

The target of test [2] is T2, Zinc finger protein mex-5 (Caenorhabditis elegans, UniProt Q9XUB2).
T2 sequence (Q9XUB2 whole entry): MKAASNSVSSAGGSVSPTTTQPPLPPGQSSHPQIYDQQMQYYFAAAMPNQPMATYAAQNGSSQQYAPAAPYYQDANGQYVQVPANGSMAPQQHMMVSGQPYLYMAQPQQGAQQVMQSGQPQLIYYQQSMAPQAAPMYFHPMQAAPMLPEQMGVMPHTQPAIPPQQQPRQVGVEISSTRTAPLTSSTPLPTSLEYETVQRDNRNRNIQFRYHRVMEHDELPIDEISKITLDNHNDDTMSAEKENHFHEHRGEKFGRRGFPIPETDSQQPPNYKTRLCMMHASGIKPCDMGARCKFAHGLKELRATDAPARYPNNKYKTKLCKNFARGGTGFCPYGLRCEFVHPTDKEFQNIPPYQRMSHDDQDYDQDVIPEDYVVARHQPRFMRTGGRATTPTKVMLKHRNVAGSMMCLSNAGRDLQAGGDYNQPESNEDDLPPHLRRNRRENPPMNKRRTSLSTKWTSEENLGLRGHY
The experiment in a line: potency of MEX-5 RNA-binding blockers – biochemical, C. elegans, fluorescence polarization, dose response (AID 1960).

In test [3] the test system is Streptococcus sp. 'group A'. The experiment in a line: Streptococcus pyogenes SK(-)GAS viability under kanamycin – luminescence, BacTiterGlo, confirmation, counter-screen for streptokinase expression inhibitor project, dose response (AID 1900). It counts as functional, organism-based.
In test [4] the target is T3, Streptokinase A (Streptococcus pyogenes serotype M1, UniProt P10520).
T3 sequence (P10520 whole entry): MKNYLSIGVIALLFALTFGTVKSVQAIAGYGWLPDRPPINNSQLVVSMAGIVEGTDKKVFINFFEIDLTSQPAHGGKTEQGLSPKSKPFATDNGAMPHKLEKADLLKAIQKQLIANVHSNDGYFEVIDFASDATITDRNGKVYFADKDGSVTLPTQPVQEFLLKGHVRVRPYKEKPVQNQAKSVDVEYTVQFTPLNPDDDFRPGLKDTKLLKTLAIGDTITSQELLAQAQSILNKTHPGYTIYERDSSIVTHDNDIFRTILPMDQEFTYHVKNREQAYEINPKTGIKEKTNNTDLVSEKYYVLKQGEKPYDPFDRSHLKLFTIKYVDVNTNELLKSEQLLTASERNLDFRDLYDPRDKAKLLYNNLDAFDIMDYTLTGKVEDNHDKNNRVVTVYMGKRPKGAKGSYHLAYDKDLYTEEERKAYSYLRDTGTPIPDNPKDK
The experiment in a line: viability-normalized secreted streptokinase activity reduction – plasminogen activation absorbance, OD405, dose response (AID 1914).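 Also: secreted streptokinase activity via plasminogen activation per viability signal from cell pellet.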 It counts as functional, Streptococcus pyogenes M1 GAS.

In test [5] the test system is Streptococcus. The experiment in a line: GAS UMAA2166 growth inhibition – luminescence, BacTiterGlo, counter-screen for streptokinase expression inhibitor project, dose response (AID 1915).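 Also: potency for reduction of bacterial viability or growth.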 The test is classed as functional, organism-based. Background: A counterscreen serves to expose hits that act by an unwanted route or on another target.
The target in test [6] is T4, Protein skinhead-1 (Caenorhabditis elegans, UniProt P34707).
T4 sequence (P34707 whole entry): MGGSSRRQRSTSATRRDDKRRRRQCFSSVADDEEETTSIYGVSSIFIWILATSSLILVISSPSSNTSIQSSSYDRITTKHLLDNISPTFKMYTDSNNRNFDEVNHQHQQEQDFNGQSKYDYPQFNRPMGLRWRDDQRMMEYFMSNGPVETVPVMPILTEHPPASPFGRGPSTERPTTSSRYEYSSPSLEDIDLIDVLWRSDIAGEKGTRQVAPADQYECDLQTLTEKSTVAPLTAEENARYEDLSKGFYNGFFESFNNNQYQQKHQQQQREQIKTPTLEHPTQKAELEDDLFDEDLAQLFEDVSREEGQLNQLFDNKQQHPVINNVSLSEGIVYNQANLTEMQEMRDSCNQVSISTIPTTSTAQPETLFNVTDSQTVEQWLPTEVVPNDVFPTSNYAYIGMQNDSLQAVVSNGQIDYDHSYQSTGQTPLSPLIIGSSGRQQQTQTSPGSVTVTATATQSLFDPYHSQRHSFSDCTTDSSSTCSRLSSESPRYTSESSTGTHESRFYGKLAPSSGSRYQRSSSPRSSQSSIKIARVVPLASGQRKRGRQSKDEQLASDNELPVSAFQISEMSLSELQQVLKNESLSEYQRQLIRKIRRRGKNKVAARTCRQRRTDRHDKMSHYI
It counts as functional.

Test [7] deals with BJ. The test is described as follows: BJ-TERT fibroblast viability loss – cell-based, RAS-independent, luminescence, dose response (AID 1933). It counts as functional. As to conditions: Homo sapiens.
Test [8] concerns BJ. The experiment in a line: cells. To be noted: Homo sapiens. It counts as functional, cell-based.
Test [9] deals with BJ. The experiment in a line: BJ-TERT-LT-ST fibroblast viability loss – cell-based, RAS-independent, luminescence, dose response (AID 1935).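 Also: BJ fibroblasts immortalized with TERT plus LT and ST oncogenes.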 It counts as functional. To be noted: Homo sapiens.
A short description of test [10]: DRD fibroblast viability loss – cell-based, non-viral oncogenic, luminescence, dose response (AID 1934). The test is classed as functional. To be noted: Homo sapiens.
Test [11] in a line: Luminescence Cell-Based Dose Confirmation HTS to Identify Activators of 5'UTR Stem-Loop Driven Alpha-Synuclein mRNA Translation in H4 Neuroglioblastoma Cells. [Related pubchem assays: 1829 (Project Summary), 1814 (Primary HTS)]. The test is classed as functional.
The nature of test [12]: Luminescence Cell-Based Dose Response HTS to Identify Activators of Luciferase Translation or Activity in H4 […] Cells. [Related pubchem assays: 1829 (Project Summary), 1814 (Primary HTS)]. It counts as functional.
Test [13] has as its system H4. The test is described as follows: Luminescence Cell-Based Dose Response HTS to Identify Activators of 5'UTR Stem-Loop Driven Prion Protein mRNA Translation in H4 Neuroglioblastoma Cells. [Related pubchem assays: 1829 (Project Summary), 1814 (Primary HTS)]. The test is classed as functional. As to conditions: Homo sapiens.
The target in test [14] is Paired box protein Pax-8 (Homo sapiens, UniProt Q06710). The test is described as follows: PAX8 transcriptional activity inhibition in RMG-I – RMG-I cells, luciferase, cherry-pick, dose response (AID 687027).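 Also: luciferase reporter driven by Pax8 target thyroperoxidase promoter measured by SteadyGlo luminescence.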 The test is classed as functional, cell-based.
Chain of Paired box protein Pax-8 (Q06710 whole entry, the tested form may be a part): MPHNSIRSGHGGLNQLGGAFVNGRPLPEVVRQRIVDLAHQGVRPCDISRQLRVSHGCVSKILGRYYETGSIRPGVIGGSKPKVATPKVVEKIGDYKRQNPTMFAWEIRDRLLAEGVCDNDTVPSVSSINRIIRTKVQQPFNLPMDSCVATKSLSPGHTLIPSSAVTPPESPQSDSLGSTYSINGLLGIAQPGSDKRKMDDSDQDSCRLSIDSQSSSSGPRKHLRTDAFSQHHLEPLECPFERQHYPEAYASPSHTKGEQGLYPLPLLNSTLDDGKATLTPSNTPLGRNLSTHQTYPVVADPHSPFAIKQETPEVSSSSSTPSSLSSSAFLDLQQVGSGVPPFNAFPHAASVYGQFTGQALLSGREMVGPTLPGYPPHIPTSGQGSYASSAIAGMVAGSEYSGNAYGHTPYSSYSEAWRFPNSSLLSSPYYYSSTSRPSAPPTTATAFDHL
In test [15] the target is T5, Carboxy-terminal domain RNA polymerase II polypeptide A small phosphatase 1 (Homo sapiens, UniProt Q9GZU7).
T5 sequence (Q9GZU7 whole entry): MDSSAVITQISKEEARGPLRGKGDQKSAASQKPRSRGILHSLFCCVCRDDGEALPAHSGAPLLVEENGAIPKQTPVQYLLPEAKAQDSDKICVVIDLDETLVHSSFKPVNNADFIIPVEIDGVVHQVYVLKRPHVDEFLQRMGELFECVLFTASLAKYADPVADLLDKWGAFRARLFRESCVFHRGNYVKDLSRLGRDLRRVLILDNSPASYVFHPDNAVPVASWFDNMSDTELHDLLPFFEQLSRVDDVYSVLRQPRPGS
The test is described as follows: CTDSP1 inhibitors, concentration-response, biochemical, absorbance readout, ultra-high-throughput screen actives (AID 540297). The test is classed as functional.

A short description of test [16]: Trypanosoma cruzi growth suppression in host cells – NIH3T3 host cells, beta-gal luminescence, confirmation (AID 2044).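 Also: intracellular parasites grown in NIH/3T3 mouse fibroblasts as host cells; luminescent beta-galactosidase reporter signal from transgenic T. cruzi replicating inside host cells; inhibitors lower the luminescence signal.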 The test is classed as functional, cell-based.
The nature of test [17]: NIH3T3 cell viability loss – ATP luminescence, mouse fibroblasts, counter-screen, dose response (AID 2010).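 Also: cells exposed to compound for about 90 hours before reading.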 The test is classed as functional, cell-based.
Test [18] deals with INS1. The test is described as follows: INS-1E survival protection against cytokine death – cell-based, luminescence, retest, dose response (AID 449756).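 Also: cell death triggered by IL-1 beta plus TNF-alpha plus IFN-gamma mixture; protective hits raise ATP signal compared with cytokine alone wells.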 The test is classed as functional. To be noted: Rattus norvegicus.

Calls of active or inactive are those of the source. Rule as the data show it, for most assays here: actives have a measured EC50 and inactives only a lower limit. Bounds are passed on as bounds.

`O=C(O)CCc1ccc(-c2cccs2)n1-c1ccc(C(=O)O)cc1`: the 50% effective concentration (EC50) in test [1] and in test [2] was > 300 µM (not active) in each case.
Regarding `CCOc1ccc2nc(NC(=O)CN3CCC(n4nnc5cc(C(F)(F)F)ccc54)CC3)sc2c1`, the figures for the EC50 in test [3], in test [4] and in test [5] were 68.6 µM (active), > 150 µM (not active) and > 150 µM (not active), respectively. For the same compound, in test [6], the IC50 (commonly the midpoint of a concentration-inhibition curve) was > 100 µM (inactive).
Regarding `c1ccc(-c2cn3c(n2)-c2ccccc2C3)cc1`, the 50% effective concentration (EC50) (as a rule, the concentration needed to bring the measured effect to its halfway point) in [7] is 14.9 µM (active); in test [8], 14.3 µM (active); in test [9] it was > 150 µM (inconclusive); in [10] it was 11.6 µM (active).
On to `Cn1ncc2c(NCCc3ccccc3)nc(Cl)nc21`, for which the IC50 in test [6] is > 100 µM (inactive).
As to `Cc1nc([N+](=O)[O-])c(Br)n1CC(=O)c1cccc([N+](=O)[O-])c1`, the EC50 was > 150 µM (not active) in [7], > 150 µM (not active) in [8], > 150 µM (inconclusive) in [9] and > 150 µM (not active) in test [10].
On to `CCOC(=O)N1CCN(C(=O)Nc2ccc(Cl)cc2)CC1`, for which the IC50 in test [6] was > 100 µM (inactive).
On to `CC(C)(C)OC(=O)NCCCCC1=CC2=CC(=O)C(C)(OC(=O)c3cnc4ccccc4n3)C(=O)C2=CO1` (configuration not stated), for which the 50% effective concentration (EC50) in [1] was 17.2 µM (active); in [2], 15 µM (active).
Consider `O=C(O)c1ccc(Nc2ccc([N+](=O)[O-])c3nonc23)cc1`, for which the IC50 in [6] is 48.5 µM (active).
For the compound `CCC1(C)Cc2ccccc2-c2nc(NCCO)n(-c3ccc(C)cc3)c(=O)c21` (configuration not stated), the EC50 in test [11], in [12] and in test [13] was > 120 µM (not active) in each case. In test [6], the IC50 is > 100 µM (inactive).
Take `C[C@H]1CCCCO[C@@H](CN(C)C(=O)NC2CCCCC2)[C@@H](C)CN([C@@H](C)CO)C(=O)c2cc(NC(=O)Nc3ccc(C(F)(F)F)cc3)ccc2O1`: in test [14], the AC50 – broadly, the concentration at which the activity in the assay is half-maximal – is 2.54 µM (active).
Take `Cc1ccc(NC(=S)NC(=O)C2CC2)c(C)c1`: in test [6], the IC50 is > 100 µM (inactive).
Turning to `Cc1ccc2[nH]c(/C(C#N)=C/c3ccc(-c4cccc([N+](=O)[O-])c4)o3)nc2c1`, the IC50 in test [15] is 6.06 µM (active).
`COc1ccc(C2C(C#N)=C(N)OC3=C2C(=O)CCC3)c(OC)c1OC` (configuration not stated): the EC50 in test [1] and in test [2] was > 300 µM (not active) in each case.
For the compound `O=C(NCCF)C1Nc2ccc(OC(F)(F)F)cc2C2C=CCC12` (configuration not stated), the EC50 in [1] and in test [2] was > 300 µM (not active) each time.
`Cc1ccc(NC(=O)CSCC(=O)Nc2ccccc2C(=O)N2CCCCC2)cc1`: the IC50 in test [6] was > 100 µM (inactive).
With `COc1cc2nc(C3CCC3)nc(N3CCN(c4ccccc4OC)CC3)c2cc1OC`, the AC50 in [14] is 18.9 µM (active).
For the compound `CC(C)(C)OC(=O)NCCCC1=CC2=CC(=O)C(C)(OC(=O)c3ccc(Cl)nc3)C(=O)C2=CO1` (configuration not stated), the figures for the EC50 in test [1] and in test [2] were 17.2 µM (active) and 20 µM (active), respectively.
For `CCOc1ccc(C(=O)Nc2ccc(NC(=O)c3ccccc3)c(C)c2)cc1[N+](=O)[O-]`, the IC50 in [15] is 5.03 µM (active).
Turning to `Cc1cc(C)c(NC(=O)COC(=O)C2CCN(c3ccc(C(F)(F)F)cn3)CC2)c(Cl)c1`, in test [6], the IC50 was > 100 µM (inactive).
Take `C=C1[C@@H](C)C2[C@H](Cc3ccccc3)NC(=O)[C@]23OC(=O)CC[C@H](O)CCC[C@H](C)C/C=C/[C@H]3[C@@H]1O` (some centres not stated): the concentration giving a half-maximal response (EC50) in test [7] is 8.36 µM (inconclusive); in test [8] it was > 150 µM (not active); in test [9], 17.2 µM (active); in test [10], 12.2 µM (inconclusive).
For the compound `N=c1c(S(=O)(=O)c2ccc(Cl)cc2)cc2c(=O)n3ccccc3nc2n1CCc1ccccc1`, the EC50 in test [1] was > 300 µM (inconclusive); in test [2] it was 1.39 µM (active); in [16] it was 377 nM (active); in test [17], > 60 µM (not active).
As to `c1ccc(-c2ccc(-c3ccncn3)cc2)cc1`, the IC50 in test [6] was 15.2 µM (active).
For the compound `O=C1c2ccccc2C(=O)N1Nc1ccc([N+](=O)[O-])cc1[N+](=O)[O-]`, the IC50 in [15] is 16.9 µM (active).
As for `Cc1ccc(Oc2nc(-c3ccccn3)nc3ccccc23)cc1`, the EC50 in test [1] was > 300 µM (inconclusive); in test [3], 8.8 µM (active); in test [2], 6.96 µM (active); in test [4], > 150 µM (not active); in test [5] it was > 150 µM (not active). The AC50 in test [18] was 1.78 µM (active).
